Measurements from patent US20260308145A1, “CDK2 INHIBITORS AND METHODS OF USING SAME” (Shenzhen lonova Life Science Co., Ltd., priority 2023, published 2026).

Assays:
Assay type in all cases: biochemical
CDK6/cyclinD3 = target: T1, CDK6/cyclinD3 (Homo sapiens, UniProt Q00534); assay: Cyclin-dependent kinase activity assay (continuous ATP coupling assay), CDK6/cyclinD3; details: CDK6/cyclinD3 25 nM, ATP 500 μM, Rb copeptide 500 μM, 15 min preincubation, pH 7.5, 1% DMSO
T1 construct: purchased Carna Biosciences 04-107
Experimental: (§1) Cyclin-dependent kinase activity assay was measured by continuous ATP coupling assay in which ADP generated by kinase catalyzed phosphorylation was converted back to ATP by consuming phosphoenolpyruvate (PEP) and NADH catalyzed by pyruvate kinase/lactate dehydrogenase (PK/LDH). The assay compositions (see, Table 1) consist of one of the kinases, including CDK1/cyclinB1, CDK2/cyclinE1, CDK4/cyclinD3, and CDK6/cyclinD3 at the designated concentration, ATP at the corresponding Km of the kinase, copeptide and the ATP coupling system of PEP, NADH and PK/LDH. The assay was conducted in a reaction buffer of 20 mM Tris (pH 7.5) with 50 mM NaCl, 0.5 mM DTT and 0.04% BSA, and results were monitored continuously by fluorescence decrease of NADH with excitation at 340 nm and emission at 460 nm. Linear regression of the resulting reaction time traces gave reaction velocities.
(§2) For inhibition assay, compounds were first serial diluted in a 1:3 ratio from 10 μM to 0.05 nM using 10× reaction buffer. One of the CDK kinase was then introduced to compounds solution and incubated for 15 min. Finally, the compositions of ATP coupling system were introduced to the resulting solution to initiate the reaction. The final reaction mixture was in 1× reaction assay buffer with 1% DMSO. The half-maximal inhibition concentrations (IC50) for compounds were determined by fitting the plots of reaction velocity against compound concentration with 4-variable IC50 equation. The inhibition constants (Ki) were determined by fitting the same plots with quadratic/Morrison equation. Data were analyzed using commercially available software Graphpad Prism.
(§3) Exemplary results are presented as calculated IC50 values. • A: IC50≤10 nM • B: IC50>10 nM and IC50<100 nM • C: IC50≥100 nM

CDK4/cyclinD3 = target: T2, CDK4/cyclinD3 (Homo sapiens, UniProt P11802); assay: Cyclin-dependent kinase activity assay (continuous ATP coupling assay), CDK4/cyclinD3; details: CDK4/cyclinD3 60 nM, ATP 500 μM, Rb copeptide 500 μM, 15 min preincubation, pH 7.5, 1% DMSO
T2 construct: purchased Carna Biosciences 04-105
Experimental: as §1, §2, §3

CDK2/cyclinE1 = target: T3, CDK2/cyclinE1 (Homo sapiens, UniProt P24941); assay: Cyclin-dependent kinase activity assay (continuous ATP coupling assay), CDK2/cyclinE1; details: CDK2/cyclinE1 5 nM, ATP 300 μM, Rb copeptide 100 μM, 15 min preincubation, pH 7.5, 1% DMSO
T3 construct: purchased Carna Biosciences 04-165
Experimental: as §1, §2, §3

CDK1/cyclinB1 = target: T4, CDK1/cyclinB1 (Homo sapiens, UniProt P06493); assay: Cyclin-dependent kinase activity assay (continuous ATP coupling assay), CDK1/cyclinB1; details: CDK1/cyclinB1 10 nM, ATP 200 μM, Histone1 copeptide 100 μM, 15 min preincubation, pH 7.5, 1% DMSO
T4 construct: purchased Carna Biosciences 04-102
Experimental: as §1, §2, §3

T1 sequence (Q00534 whole entry): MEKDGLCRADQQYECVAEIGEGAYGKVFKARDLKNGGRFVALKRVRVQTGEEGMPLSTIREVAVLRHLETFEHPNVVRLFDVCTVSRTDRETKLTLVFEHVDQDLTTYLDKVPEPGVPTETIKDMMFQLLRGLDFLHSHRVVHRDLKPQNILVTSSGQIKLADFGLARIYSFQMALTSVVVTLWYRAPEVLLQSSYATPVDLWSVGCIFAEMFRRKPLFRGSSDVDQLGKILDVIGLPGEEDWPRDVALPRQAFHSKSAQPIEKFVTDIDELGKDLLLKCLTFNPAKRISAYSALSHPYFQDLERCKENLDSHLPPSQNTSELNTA
T1 sequence (P30281 whole entry partner): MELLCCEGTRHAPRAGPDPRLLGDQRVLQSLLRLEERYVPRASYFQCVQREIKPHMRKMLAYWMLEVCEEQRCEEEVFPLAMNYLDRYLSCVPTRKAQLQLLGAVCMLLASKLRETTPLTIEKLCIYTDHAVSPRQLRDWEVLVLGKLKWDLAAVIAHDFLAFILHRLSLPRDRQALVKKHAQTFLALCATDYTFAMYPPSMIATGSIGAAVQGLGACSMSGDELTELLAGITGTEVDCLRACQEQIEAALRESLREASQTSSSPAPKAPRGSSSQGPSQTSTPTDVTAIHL
T4 sequence (P06493 whole entry): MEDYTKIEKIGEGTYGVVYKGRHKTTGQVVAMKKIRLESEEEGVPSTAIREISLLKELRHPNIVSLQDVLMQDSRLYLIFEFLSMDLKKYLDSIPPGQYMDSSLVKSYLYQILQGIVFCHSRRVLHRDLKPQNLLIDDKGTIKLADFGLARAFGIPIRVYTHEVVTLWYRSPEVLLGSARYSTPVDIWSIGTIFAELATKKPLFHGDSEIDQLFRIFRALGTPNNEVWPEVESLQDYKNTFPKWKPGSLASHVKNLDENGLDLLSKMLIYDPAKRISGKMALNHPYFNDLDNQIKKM
T4 sequence (P14635 whole entry partner): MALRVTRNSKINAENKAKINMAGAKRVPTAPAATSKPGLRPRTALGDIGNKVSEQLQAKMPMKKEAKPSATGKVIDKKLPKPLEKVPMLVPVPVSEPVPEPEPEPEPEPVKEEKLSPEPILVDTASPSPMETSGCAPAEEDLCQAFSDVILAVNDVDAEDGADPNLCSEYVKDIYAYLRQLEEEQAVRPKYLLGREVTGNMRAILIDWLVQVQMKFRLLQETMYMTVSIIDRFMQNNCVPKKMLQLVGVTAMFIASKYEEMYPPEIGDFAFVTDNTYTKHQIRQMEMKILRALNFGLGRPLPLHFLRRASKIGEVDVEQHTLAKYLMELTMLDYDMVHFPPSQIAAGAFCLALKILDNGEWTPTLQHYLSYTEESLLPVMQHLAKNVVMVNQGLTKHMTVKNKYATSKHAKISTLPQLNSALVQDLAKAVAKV
T2 sequence (P11802 whole entry): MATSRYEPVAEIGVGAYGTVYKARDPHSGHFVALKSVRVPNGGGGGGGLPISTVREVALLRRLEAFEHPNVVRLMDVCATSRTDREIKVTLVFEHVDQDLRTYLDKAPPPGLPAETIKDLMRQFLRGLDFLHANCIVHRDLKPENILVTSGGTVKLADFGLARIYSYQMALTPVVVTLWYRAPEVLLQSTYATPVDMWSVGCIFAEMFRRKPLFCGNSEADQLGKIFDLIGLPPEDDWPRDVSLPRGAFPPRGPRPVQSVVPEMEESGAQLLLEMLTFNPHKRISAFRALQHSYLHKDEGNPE
T2 sequence (P30281 whole entry partner): as the sequence (P30281 whole entry partner) above

Row | SMILES | IC50 (CDK6/cyclinD3) | IC50 (CDK4/cyclinD3) | IC50 (CDK2/cyclinE1) | IC50 (CDK1/cyclinB1)
1 | CNS(=O)(=O)c1ccc(Nc2ncc(C(F)(F)F)c(-n3cc(C(C)(C)C#N)cn3)n2)cc1 [Example 49, 4-[[4-[4-(1-cyano-1-methyl-ethyl)pyrazol-1-yl]-5-(trifluoromethyl)pyrimidin-2-yl]amino]-N-methyl-benzene sulfonamide] | 10 to 100 nM | 10 to 100 nM | 10 to 100 nM | 10 to 100 nM
2 | CNS(=O)(=O)c1ccc(Nc2ncc(C(F)(F)F)c(-n3cc(C4CC4)cn3)n2)cc1 [Example 50] | 10 to 100 nM | 10 to 100 nM | ≤ 10 nM | ≥ 100 nM
3 | CNS(=O)(=O)c1ccc(Nc2ncc(C(F)(F)F)c(-n3cc(C4(C#N)CC4)cn3)n2)cc1 [Example 51, 4-[[4-[4-(1-cyanocyclopropyl)pyrazol-1-yl]-5-(trifluoromethyl)pyrimidin-2-yl]amino]-N-methyl-benzene sulfonamide] | ≥ 100 nM | ≥ 100 nM | 10 to 100 nM | ≥ 100 nM
4 | [2H]C([2H])([2H])NS(=O)(=O)c1ccc(Nc2ncc(C(F)(F)F)c(-n3ccc(C(F)(F)F)n3)n2)cc1 [Example 54] | ≥ 100 nM | ≥ 100 nM | 10 to 100 nM | ≥ 100 nM
5 | CNS(=O)(=O)c1ccc(Nc2ncc(C(F)(F)F)c(-n3ccc(C4CC4)n3)n2)cc1 [Example 56] | ≥ 100 nM | ≥ 100 nM | ≥ 100 nM | ≥ 100 nM
6 | CNS(=O)(=O)c1ccc(Nc2ncc(C(F)(F)F)c(-n3nccc3C3CC3)n2)cc1 [Example 57] | ≥ 100 nM | ≥ 100 nM | 10 to 100 nM | ≥ 100 nM
7 | [2H]C([2H])([2H])NS(=O)(=O)c1ccc(Nc2ncc(C(F)(F)F)c(-n3cc(CC(C)(C)O)cn3)n2)cc1 [Example 58] | 10 to 100 nM | 10 to 100 nM | ≤ 10 nM | 10 to 100 nM
8 | CNS(=O)(=O)c1ccc(Nc2ncc(C(F)(F)F)c(-n3cc(C(C)(C)CO)cn3)n2)cc1 [Example 59] | 10 to 100 nM | 10 to 100 nM | ≤ 10 nM | 10 to 100 nM
9 | CNS(=O)(=O)c1ccc(Nc2ncc(C(F)(F)F)c(-n3cc(C(C)(C)C(C)(C)O)cn3)n2)cc1 [Example 60] | ≥ 100 nM | 10 to 100 nM | 10 to 100 nM | 10 to 100 nM
10 | [2H]C([2H])([2H])NS(=O)(=O)c1ccc(Nc2ncc(C(F)(F)F)c(-n3cc(CCC(C)(C)O)cn3)n2)cc1 [Example 61] | ≥ 100 nM | 10 to 100 nM | ≤ 10 nM | ≥ 100 nM
11 | CNS(=O)(=O)c1ccc(Nc2ncc(F)c(-n3cc(CC(C)(C)O)cn3)n2)cc1 [Example 62] | ≥ 100 nM | 10 to 100 nM | 10 to 100 nM | ≥ 100 nM
12 | CNS(=O)(=O)c1ccc(Nc2ncc(C)c(-n3cc(CC(C)(C)O)cn3)n2)cc1 [Example 63] | 10 to 100 nM | 10 to 100 nM | 10 to 100 nM | ≥ 100 nM
13 | CNS(=O)(=O)c1ccc(Nc2ncc(C#N)c(-n3cc(CC(C)(C)O)cn3)n2)cc1 [Example 64] | 10 to 100 nM | 10 to 100 nM | ≤ 10 nM | ≥ 100 nM
14 | CNS(=O)(=O)c1ccc(Nc2ncc(Cl)c(-n3cc(CC(C)(C)O)cn3)n2)cc1 [Example 65] | 10 to 100 nM | 10 to 100 nM | ≤ 10 nM | 10 to 100 nM

The next lines start with the values.

Row | IC50 (CDK6/cyclinD3) | IC50 (CDK4/cyclinD3) | IC50 (CDK2/cyclinE1) | IC50 (CDK1/cyclinB1) | SMILES
15 | 10 to 100 nM | 10 to 100 nM | 10 to 100 nM | ≥ 100 nM | CNS(=O)(=O)c1ccc(Nc2ncc(C(F)F)c(-n3cc(CC(C)(C)O)cn3)n2)cc1 [Example 66]
16 | ≥ 100 nM | ≥ 100 nM | 10 to 100 nM | ≥ 100 nM | CNS(=O)(=O)c1ccc(Nc2nccc(-n3cc(CC(C)(C)O)cn3)n2)cc1 [Example 67]
17 | 10 to 100 nM | 10 to 100 nM | ≤ 10 nM | 10 to 100 nM | CNS(=O)(=O)c1ccc(Nc2ncc(Br)c(-n3cc(CC(C)(C)O)cn3)n2)cc1 [Example 68]
18 | ≥ 100 nM | ≥ 100 nM | 10 to 100 nM | ≥ 100 nM | CNS(=O)(=O)c1ccc(Nc2ncc(C(F)(F)F)c(-n3ncc(CC(C)(C)O)c3C)n2)cc1 [Example 69]
19 | ≥ 100 nM | ≥ 100 nM | 10 to 100 nM | ≥ 100 nM | CNS(=O)(=O)c1ccc(Nc2ncc(C(F)(F)F)c(-n3cc(CC(C)(C)O)c(C)n3)n2)cc1 [Example 70]
20 | 10 to 100 nM | ≤ 10 nM | ≤ 10 nM | 10 to 100 nM | CC(C)(O)Cc1cnn(-c2nc(Nc3ccc(S(N)(=O)=O)cc3)ncc2C(F)(F)F)c1 [Example 71]
21 | ≥ 100 nM | 10 to 100 nM | ≤ 10 nM | 10 to 100 nM | CNS(=O)(=O)c1ccc(Nc2ncc(C(F)(F)F)c(-n3cc(CC(C)(C)N)cn3)n2)cc1 [Example 72, 4-[[4-[4-(2-amino-2-methyl-propyl)pyrazol-1-yl]-5-(trifluoromethyl)pyrimidin-2-yl]amino]-N-methyl-benzene sulfonamide]
22 | 10 to 100 nM | 10 to 100 nM | 10 to 100 nM | ≥ 100 nM | CC(C)(O)Cc1cnn(-c2nc(Nc3ccc(S(=O)(=O)NC4CC4)cc3)ncc2C(F)(F)F)c1 [Example 73]
23 | 10 to 100 nM | 10 to 100 nM | ≤ 10 nM | 10 to 100 nM | CNS(=O)(=O)c1ccc(Nc2ncc(C(F)(F)F)c(-n3cc(C4CCN(C)CC4)cn3)n2)cc1 [Example 80, N-methyl-4-[[4-[4-(1-methyl-4-piperidyl)pyrazol-1-yl]-5-(trifluoromethyl)pyrimidin-2-yl]amino]benzene sulfonamide]
24 | 10 to 100 nM | 10 to 100 nM | 10 to 100 nM | 10 to 100 nM | CNS(=O)(=O)c1ccc(Nc2ncc(C(F)(F)F)c(-n3cc(C4CCN(S(C)(=O)=O)CC4)cn3)n2)cc1 [Example 81]
25 | ≥ 100 nM | 10 to 100 nM | ≤ 10 nM | 10 to 100 nM | CNS(=O)(=O)c1ccc(Nc2ncc(C(F)(F)F)c(-n3cc(C4CCN(C(C)C)CC4)cn3)n2)cc1 [Example 82]
26 | ≥ 100 nM | ≥ 100 nM | ≤ 10 nM | ≥ 100 nM | CNS(=O)(=O)c1ccc(Nc2ncc(C(F)(F)F)c(-n3cc(N4CCN(C)CC4)cn3)n2)cc1 [Example 83]
27 | ≥ 100 nM | ≥ 100 nM | 10 to 100 nM | ≥ 100 nM | CNS(=O)(=O)c1ccc(Nc2ncc(C(F)(F)F)c(-n3cc(CN4CCNCC4)cn3)n2)cc1 [Example 84]
28 | ≥ 100 nM | 10 to 100 nM | ≤ 10 nM | 10 to 100 nM | CNS(=O)(=O)c1ccc(Nc2ncc(C(F)(F)F)c(-n3cc(N4CCNCC4)cn3)n2)cc1 [Example 85]
29 | ≥ 100 nM | ≥ 100 nM | 10 to 100 nM | ≥ 100 nM | CNS(=O)(=O)c1ccc(Nc2ncc(C(F)(F)F)c(-n3cc(-c4ccoc4)cn3)n2)cc1 [Example 86]
30 | ≥ 100 nM | ≥ 100 nM | 10 to 100 nM | ≥ 100 nM | CNS(=O)(=O)c1ccc(Nc2ncc(C(F)(F)F)c(-n3cc(N4CCCC4)cn3)n2)cc1 [Example 87, N-methyl-4-[[4-(4-pyrrolidin-1-ylpyrazol-1-yl)-5-(trifluoromethyl)pyrimidin-2-yl]amino]benzene sulfonamide]
31 | ≥ 100 nM | ≥ 100 nM | 10 to 100 nM | ≥ 100 nM | CNS(=O)(=O)c1ccc(Nc2ncc(C(F)(F)F)c(-n3cc(N4CCCC4=O)cn3)n2)cc1 [Example 88, N-methyl-4-[[4-[4-(2-oxopyrrolidin-1-yl)pyrazol-1-yl]-5-(trifluoromethyl)pyrimidin-2-yl]amino]benzene sulfonamide]
32 | 10 to 100 nM | 10 to 100 nM | ≤ 10 nM | 10 to 100 nM | CNS(=O)(=O)c1ccc(Nc2ncc(C(F)(F)F)c(-n3cc([C@H]4CCCN4)cn3)n2)cc1 [Example 91, (R)—N-methyl-4-((4-(4-(pyrrolidin-2-yl)-1H-pyrazol-1-yl)-5-(trifluoromethyl)pyrimidin-2-yl)amino)benzenesulfonamide]
33 | ≥ 100 nM | 10 to 100 nM | ≤ 10 nM | 10 to 100 nM | CNS(=O)(=O)c1ccc(Nc2ncc(C(F)(F)F)c(-n3cc([C@@H]4CCNC4)cn3)n2)cc1 [Example 94, (S)—N-methyl-4-((4-(4-(pyrrolidin-3-yl)-1H-pyrazol-1-yl)-5-(trifluoromethyl)pyrimidin-2-yl)amino)benzenesulfonamide]
